According to patent publication US20250152660A1, “SCO-spondin-derived polypeptides for treating biological barriers dysfunction” (AXOLTIS PHARMA, priority 2021, published 2025):
Where “and” joins values, the source holds several entries; their conditions need not be identical. Identical values can stand only once. Bridges are numbered along the chain shown (N, C = ends). Where no end group is shown, it is not given here.

Columns and labels:
Type in all cases: cell-based
[1] = system: mouse brain endothelial bEnd.3 cells; test: Transendothelial electrical resistance (TEER) of mouse brain endothelial cell monolayer on Transwell inserts; conditions: for TEER change relative to control, Average / TEER change relative to control: bEnd.3
Procedure: (§1) To determine the effect of NX218 on transendothelial electrical resistance (TEER) of mouse brain endothelial cells, cells were grown on a semi-permeable membrane inserted in culture wells in presence or absence of NX218 and the TEER was recorded using electrodes placed on each side of the membrane and a resistance meter.
Mouse brain endothelial cells (bEnd.3, American Type Culture Collection) were cultured in Dulbecco's modified Eagle's Medium (DMEM) supplemented with 10% fetal bovine serum (FBS) and 2 mM sodium pyruvate in a 5% CO2 incubator at 37° C.
bEnd.3 cells were grown on 6.5-mm-diameter, 0.4-μm-pore, polyester membrane HTS Transwell inserts (5×10^4 cells per well containing 200 μL and 800 μL of culture medium in the apical and basolateral compartments respectively). Three days after seeding, cells were treated with vehicle or NX218 (1, 10 and 100 μM) for 1, 2 or 3 days. TEER values were measured using an EVOM resistance meter fitted with “chopstick” electrodes. One electrode was placed in the apical chamber and another one in the basolateral chamber. Before measurements, chambers were replaced with fresh medium.

[2] = system: mouse brain endothelial bEnd.3 cells; test: Permeability of mouse brain endothelial cell monolayer to FITC-40 kDa Dextran; conditions: for Permeability to FITC-40 kDa Dextran (endothelial permeability coefficient Pe): individual replicates N1-N3
Procedure: To determine the effect of NX218 on the permeability of mouse brain endothelial cells to a 40-kDa FITC Dextran, cells were grown on a semi-permeable membrane inserted in culture wells in presence or absence of NX218. Then, the FITC Dextran was placed on the apical chamber (containing the cells) and its levels measured (based on its fluorescence) one hour later in the basolateral chamber.
Mouse brain endothelial cells (bEnd.3, American Type Culture Collection) were cultured in DMEM supplemented with 10% FBS and 2 mM sodium pyruvate in a 5% CO2 incubator at 37° C.
bEnd.3 cells were grown to confluence on 1% fibronectin-coated Corning HTS 24-well Transwell polyester inserts with a pore size of 0.4 μm (5×10^4 cells per well containing 200 μL and 800 μL of culture medium in the apical and basolateral compartments respectively) and treated with vehicle or NX218 (1, 10 and 100 μM) for 1, 2 or 3 days. Two hundred (200) μL of 1 mg/mL of a 40-kDa FITC Dextran in DMEM supplemented with 10% FBS and 2 mM sodium pyruvate were added to the apical chamber of each well, and the cells were incubated at 37° C. Sampling aliquots were taken from the basolateral chamber and replaced with fresh medium every 15 min for 1 h and then transferred to 96-well plates. FITC-Dextran fluorescence was determined using a spectrofluorometer at an excitation wavelength of 485 nm and an emission wavelength of 520 nm. Relative fluorescence units were converted to values of nanograms per milliliter, using FITC-Dextran standard curves, and was corrected for background fluorescence and serial dilutions over the course of the experiment. The data are expressed as the endothelial permeability coefficient (Pe) in cm/min.

[3] = system: primary human umbilical vein endothelial cells (HUVEC); test: Transendothelial electrical resistance (TEER) of primary human umbilical vein endothelial cell monolayer; conditions: for TEER change relative to control, Average: average of N1-N9, control = 100; for TEER change relative to control: control average = 100, individual replicates N1-N9
Procedure: as §1, with “primary human umbilical vein” for “mouse brain”, “cells (HUVEC),” for “cells,”
HUVEC (PromoCell, C-12208) were cultured in EBM-2 basal media supplemented with bullet kit reagents (both from Lonza) in a 5% CO2 incubator at 37° C.
HUVEC were grown on 6.5-mm-diameter, 0.4-μm-pore, polyester membrane HTS Transwell inserts (5×10^4 cells per well containing 200 μL and 800 μL of culture medium in the apical and basolateral compartments respectively). Two days after seeding, cells were treated with vehicle or NX218 (1, 10 and 100 μM) for 1 or 3 days. TEER values were measured using an EVOM resistance meter fitted with “chopstick” electrodes. One electrode was placed in the apical chamber and another one in the basolateral chamber. Before measurements, chambers were replaced with fresh medium.

W-S-G-W-S-S-C-S-R-S-C-G (WSGWSSCSRSCG; disulfide 7-11 (inferred)) [NX218]
Resistance (TEER), result in words ([1]; 10 and 100 μM for 1, 2 or 3 days, compared with vehicle-treated monolayer): significantly increased in a dose dependent manner | TEER ([1]; FIG. 1, 1, 10, 100 μM for 24 h, 48 h or 72 h): increases the transendothelial electrical resistance of mouse brain endothelial cell monolayer in a dose-dependent manner | TEER change relative to control, Average ([1]; NX218 1 μM, 24 hours, average of N1-N6, control = 1): 1.095 | TEER change relative to control ([1]; NX218 1 μM, 24 hours, individual replicates N1-N6): 1.096 and 1.109 and 0.9761 and 1.051 and 1.197 and 1.139 | TEER change relative to control, Average ([1]; NX218 1 μM, 48 hours, average of N1-N9, control = 1): 1.089 | TEER change relative to control ([1]; NX218 1 μM, 48 hours, individual replicates N1-N9): 1.149 and 1.219 and 1.194 and 0.9888 and 1.006 and 1.056 and 0.9841 and 1.196 and 1.011 | TEER change relative to control, Average ([1]; NX218 1 μM, 72 hours, average of N1-N9, control = 1): 0.9718 | TEER change relative to control ([1]; NX218 1 μM, 72 hours, individual replicates N1-N9): 0.9966 and 1.022 and 1.007 and 1.003 and 0.9525 and 0.9474 and 0.9315 and 0.9406 and 0.9452 | TEER change relative to control, Average ([1]; NX218 10 μM, 24 hours, average of N1-N6, control = 1): 1.128 | TEER change relative to control ([1]; NX218 10 μM, 24 hours, individual replicates N1-N6): 1.027 and 1.068 and 1.072 and 1.178 and 1.212 (2×) | TEER change relative to control, Average ([1]; NX218 10 μM, 48 hours, average of N1-N9, control = 1): 1.203 | TEER change relative to control ([1]; NX218 10 μM, 48 hours, individual replicates N1-N9): 1.219 (2×) and 1.334 and 1.016 (2×) and 1.053 and 1.28 and 1.381 and 1.312 | TEER change relative to control, Average ([1]; NX218 10 μM, 72 hours, average of N1-N9, control = 1): 1.196 | TEER change relative to control ([1]; NX218 10 μM, 72 hours, individual replicates N1-N9): 1.27 and 1.255 and 1.239 and 1.187 (3×) and 1.151 and 1.146 (2×) | TEER change relative to control, Average ([1]; NX218 100 μM, 24 hours, average of N1-N6, control = 1): 1.307 | TEER change relative to control ([1]; NX218 100 μM, 24 hours, individual replicates N1-N6): 1.218 and 1.283 and 1.142 and 1.454 and 1.373 and 1.37 | TEER change relative to control, Average ([1]; NX218 100 μM, 48 hours, average of N1-N9, control = 1): 1.461 | TEER change relative to control ([1]; NX218 100 μM, 48 hours, individual replicates N1-N9): 1.547 and 1.404 and 1.498 and 1.223 and 1.284 and 1.173 and 1.725 and 1.72 and 1.571 | TEER change relative to control, Average ([1]; NX218 100 μM, 72 hours, average of N1-N9, control = 1): 1.446 | TEER change relative to control ([1]; NX218 100 μM, 72 hours, individual replicates N1-N9): 1.467 and 1.553 and 1.624 and 1.436 and 1.457 and 1.584 and 1.237 and 1.306 and 1.347 | Permeability to FITC-40 kDa Dextran (Pe), Average ([2]; NX218 1 μM, 24 hours, average of N1-N3, control 0.066): 1064 ×10⁻⁶ cm/s | Permeability to FITC-40 kDa Dextran (endothelial permeability coefficient Pe) ([2]; NX218 1 μM, 24 hours): 1020 ×10⁻⁶ cm/s and 971 ×10⁻⁶ cm/s and 1200 ×10⁻⁶ cm/s | Permeability to FITC-40 kDa Dextran (Pe), Average ([2]; NX218 1 μM, 48 hours, average of N1-N3, control 0.05616): 896.3 ×10⁻⁶ cm/s | Permeability to FITC-40 kDa Dextran (endothelial permeability coefficient Pe) ([2]; NX218 1 μM, 48 hours): 963 ×10⁻⁶ cm/s and 781.5 ×10⁻⁶ cm/s and 944.3 ×10⁻⁶ cm/s | Permeability to FITC-40 kDa Dextran (Pe), Average ([2]; NX218 1 μM, 72 hours, average of N1-N3, control 0.0532667): 906.3 ×10⁻⁶ cm/s | Permeability to FITC-40 kDa Dextran (endothelial permeability coefficient Pe) ([2]; NX218 1 μM, 72 hours): 942 ×10⁻⁶ cm/s and 942.2 ×10⁻⁶ cm/s and 834.8 ×10⁻⁶ cm/s | Permeability to FITC-40 kDa Dextran (Pe), Average ([2]; NX218 10 μM, 24 hours, average of N1-N3, control 0.066): 977.3 ×10⁻⁶ cm/s | Permeability to FITC-40 kDa Dextran (endothelial permeability coefficient Pe) ([2]; NX218 10 μM, 24 hours): 892 ×10⁻⁶ cm/s and 1030 ×10⁻⁶ cm/s and 1010 ×10⁻⁶ cm/s | Permeability to FITC-40 kDa Dextran (Pe), Average ([2]; NX218 10 μM, 48 hours, average of N1-N3, control 0.05616): 841.3 ×10⁻⁶ cm/s | Permeability to FITC-40 kDa Dextran (endothelial permeability coefficient Pe) ([2]; NX218 10 μM, 48 hours): 909 ×10⁻⁶ cm/s and 760 ×10⁻⁶ cm/s and 855 ×10⁻⁶ cm/s | Permeability to FITC-40 kDa Dextran (Pe), Average ([2]; NX218 10 μM, 72 hours, average of N1-N3, control 0.0532667): 747.7 ×10⁻⁶ cm/s | Permeability to FITC-40 kDa Dextran (endothelial permeability coefficient Pe) ([2]; NX218 10 μM, 72 hours): 748.2 ×10⁻⁶ cm/s and 783 ×10⁻⁶ cm/s and 712 ×10⁻⁶ cm/s | Permeability to FITC-40 kDa Dextran (Pe), Average ([2]; NX218 100 μM, 24 hours, average of N1-N3, control 0.066): 942 ×10⁻⁶ cm/s | Permeability to FITC-40 kDa Dextran (endothelial permeability coefficient Pe) ([2]; NX218 100 μM, 24 hours): 907 ×10⁻⁶ cm/s and 1012 ×10⁻⁶ cm/s and 906.3 ×10⁻⁶ cm/s | Permeability to FITC-40 kDa Dextran (Pe), Average ([2]; NX218 100 μM, 48 hours, average of N1-N3, control 0.05616): 702 ×10⁻⁶ cm/s | Permeability to FITC-40 kDa Dextran (endothelial permeability coefficient Pe) ([2]; NX218 100 μM, 48 hours): 627 ×10⁻⁶ cm/s and 725 ×10⁻⁶ cm/s and 753 ×10⁻⁶ cm/s | Permeability to FITC-40 kDa Dextran (Pe), Average ([2]; NX218 100 μM, 72 hours, average of N1-N3, control 0.0532667): 782 ×10⁻⁶ cm/s | Permeability to FITC-40 kDa Dextran (endothelial permeability coefficient Pe) ([2]; NX218 100 μM, 72 hours): 798 ×10⁻⁶ cm/s and 758.7 ×10⁻⁶ cm/s and 787.7 ×10⁻⁶ cm/s | TEER change relative to control, Average ([3]; NX218 1 μM, 24 hours): 104 | TEER change relative to control ([3]; NX218 1 μM, 24 hours): 101.3 (3×) and 95.36 (2×) and 89.4 and 119.2 (2×) and 113.2 | TEER change relative to control, Average ([3]; NX218 1 μM, 72 hours): 101.1 | TEER change relative to control ([3]; NX218 1 μM, 72 hours): 113.1 (2×) and 97.71 and 87.43 and 82.29 and 92.57 and 123.4 and 128.6 and 72 | TEER change relative to control, Average ([3]; NX218 10 μM, 24 hours): 119.2 | TEER change relative to control ([3]; NX218 10 μM, 24 hours): 101.3 (2×) and 119.2 and 149 (2×) and 143 and 89.4 and 113.2 and 107.3 | TEER change relative to control, Average ([3]; NX218 10 μM, 72 hours): 109.7 | TEER change relative to control ([3]; NX218 10 μM, 72 hours): 97.71 and 118.3 and 123.4 and 87.43 and 102.9 and 108 (2×) and 128.6 and 113.1 | TEER change relative to control, Average ([3]; NX218 100 μM, 24 hours): 158.9 | TEER change relative to control ([3]; NX218 100 μM, 24 hours): 137.1 and 149 and 143 (2×) and 172.8 and 184.8 (2×) and 155 and 160.9 | TEER change relative to control, Average ([3]; NX218 100 μM, 72 hours): 131.4 | TEER change relative to control ([3]; NX218 100 μM, 72 hours): 144 (2×) and 138.9 and 108 (2×) and 123.4 and 133.7 and 154.3 and 128.6 | Resistance (TEER), result in words ([3]; NX218 at 100 μM for 1 or 3 days, compared with vehicle): significantly increased in a dose dependent manner
